Reference: patent US12698311B2, “Process for the preparation of an antimicrobial peptide” (INSTITUTE OF BIORESOURCES AND SUSTAINABLE DEVELOPMENT, priority 2020, dated 2026)
No end group written: not given here.

Legend:
[1] = tested on: Candida albicans ATCC 10231, Escherichia coli ATCC 25922, Klebsiella pneumoniae ATCC 4352, Salmonella typhimurium ATCC 14028, Candida tropicalis ATCC 750 and …; assay: Spectrum of antimicrobial activity against AMR pathogens; assay type: cell-based; details: six ATCC strains listed
Protocol: Spectrum of antimicrobial activity: The spectrum of activity was determined from the selected test pathogens viz. S. aureus ATCC25923, C. ablicans ATCC 10231, and E. coli ATCC 25922 which represented as a Gram (+), Gram (−) and fungal pathogens (FIG. 2). […] The cell debris were removed by centrifugation at 4000 rpm for 15 min at 4° C. The supernatant was harvested for antimicrobial bioassay and preserved at 4° C. for further purification (Fujita et al., 2007). The well loaded with samples that shown a clear halo zone of inhibition (at least 6-7 mm diameter) were taken as positive against the selected Gram (+ve), Gram (−ve) and fungal pathogens. The bacterial endophytic strain IBSD35 isolated from M. pachycarpa has shown a broad-spectrum of AA against the representative test pathogens in the preliminary Spot-on-lawn bioassay and the Cut-well agar diffusion bioassay (FIG. 2). It inferred antifungal, antibacterial and antimicrobial property of the endophyte strain IBSD35.

[2] = assay type: cell-based; details: broth dilution bioassay
Protocol: The peptides were recovered by lyophilization and stored at −20° C. until further use. The MIC of the RP-HPLC purified bioactive metabolite was determined to be 0.0365 μg μl^−1 with broth dilution bioassay. The two peaks were detected in the selected wavelengths of λ280 nm, λ205 nm and λ214 nm. However, only the peak 1 was selected for further study as it had shown more potency in antimicrobial susceptibility test.

[3] = Retention of antimicrobial activity after treatment with detergents; assay type: physicochemical; set-up: key: (+) retention; (−) loss
Protocol: The surfactants such as sodium dodecyl sulphate (SDS), Tween 20, Tween 80 and Triton X were incubated with the anti-microbial compound, Peoriaerin IBSD35.

[4] = Retention of antimicrobial activity after treatment with inorganic solvents and temperature; assay type: physicochemical; set-up: key to Activity: (+) retention; (−) loss
From the text: Effect of Temperature and Inorganic Solvents:
The AMP, Peoriaerin IBSD35 is a very stable biomolecule and works on a wide range of temperature and pH and withstand against inorganic solvents as shown in Table 2 below.

[5] = Retention of antimicrobial activity after treatment with degradative enzymes; assay type: physicochemical; set-up: key to Activity: (+) retention; (−) loss
Protocol: Effect of Physiological Enzymes:
The purified AMP, Peoriaerin IBSD35 is treated with proteolytic enzymes, it can withstand against enzymes and its antimicrobial activity was checked by measuring the zone of inhibition as shown in Table 3 below.

GFEFAGAGNGVGRVNSATDATYGLGVFLDAGDNNLAKNAESTGYNDANAVTVTK [Peoriaerin IBSD35]
antimicrobial activity against gram positive, gram negative and fungal anti-microbial resistant pathogens [1]: strong and broad spectrum of antimicrobial activity | MIC [2]: 36.5 µg/mL | Activity ([3]; after SDS (1:1)): + | Activity ([3]; after Triton X (1:1)): + | Activity ([3]; after Tween 20 (1:1)): + | Activity ([3]; after Tween 80 (1:1)): + | stable at a pH in the range [4]: 4-9 | Activity ([4]; after Acetone (1:1)): + | Activity ([4]; after Butanol (1:1)): + | Activity ([4]; after Ethyl acetate (1:1)): + | Activity ([4]; after Isopropanol (1:1)): + | Activity ([4]; after Methanol (1:1)): + | Activity ([4]; after Petroleum ether (1:1)): + | Activity ([4]; after Temperature 20 ° C.): + | Activity ([4]; after Temperature 40 ° C.): + | Activity ([4]; after Temperature 60 ° C.): + | Activity ([4]; after Temperature 80 ° C.): + | Activity ([4]; after Temperature 100 ° C.): + | Activity ([4]; after Temperature 121 ° C.): + | Activity ([5]; after Catalase): + | Activity ([5]; after Cellulase): + | Activity ([5]; after Pectinase): + | Activity ([5]; after Pepsin): + | Activity ([5]; after Proteinase K (1 mg/ml)): + | Zone of inhibition diameter ([5]; after Proteinase K (1 mg/ml)): 11 mm
